US8802664B2 (Bioproject, priority 2010, dated 2014)

molecular target: T1, human H4 receptor (Homo sapiens, UniProt Q9H3N8); assay: [3H]Histamine binding on membranes of CHO cells stably expressing human H4 receptor
T1 construct: expressed in transfected cells
Procedure: CHO cells stably expressing human H4 receptor were grown until sub-confluence and centrifuged at 300 g 15 minutes at 4° C. Pellets were resuspended in buffer I Tris-HCl 50 mM, MgCl2 10 mM, NaCl 140 mM, pH=7.4 supplemented by a 1/50 dilution of a mix of protease inhibitors. The obtained suspension is stirred gently and submitted to a […] exerted through a syringe. The cell lysate is then centrifuged at 300 g 15 minutes at 4° C. in order to eliminate nucleus and cell scraps. The obtained supernatant was then centrifuged at 48000 g for 30 minutes at 4° C. The final pellet is resuspended in buffer I with a potter homogenizer. Aliquots were frozen in liquid nitrogen and stored until use at −80° C. Protein content is measured by the Bradford method.
Defreezed membranes were diluted at a final concentration of 20 μg/180 μL/well in a binding buffer containing 50 mM Tris/HCl, 0.5 mM EDTA, pH=7.4 and distributed in 96 well polystyrene microplate. [^3H] […] Non specific binding was estimated in the presence of 10 μM BP1.2404 (JNJ 7777120). The reaction was terminated by filtration through GF/B filters pre-soaked 2 hours at 4° C. in […]. Filters were rinsed 3 times with 250 μl of ice cold incubation binding buffer.
The filter-bound radioactivity was measured in a liquid scintillation counter Microbeta TRILUX® with 50 μl of scintillation fluid.
The hH4 binding investigated by use of [^3H]

SMILES	Ki or IC50 activity class
CN1CCC(OC(c2ccc3ccccc3c2)c2nc3ccccc3s2)CC1 (stereo not drawn) [Example 18, 2-[(1-methylpiperidin-4-yloxy)naphthalen-2-ylmethyl]benzothiazole]	< 300 nM
CN1CCC(OC(c2cccc(C#N)c2)c2nc3ccccc3s2)CC1 (stereo not drawn) [Example 197, 3-[benzothiazol-2-yl(1-methylpiperidin-4-yloxy)methyl]benzonitrile]	< 30 nM
CN1CCC(OC(c2cccc(SC(C)(C)C)c2)c2nc3ccccc3[nH]2)CC1 (stereo not drawn) [Example 215, 2-[(3-tert-butylsulfanylphenyl)(1-methylpiperidin-4-yloxy)methyl]-1H-benzimidazole]	< 300 nM
CC(C)Oc1cccc(C(OC2CCN(C)CC2)c2nc3ccccc3s2)c1 (stereo not drawn) [Example 55, 2-[(3-isopropoxyphenyl)(1-methylpiperidin-4-yloxy)methyl]benzothiazole]	< 30 nM
CN1CCC(OC(c2ccccc2)c2nc3ccccc3s2)C1 (stereo not drawn) [Example 2, 2-[(1-methylpyrrolidin-3-yloxy)phenyl-methyl]benzothiazole]	< 1000 nM
Cc1cc(F)c(C(OC2CCN(C)CC2)c2nc3ccccc3o2)c(F)c1 (stereo not drawn) [Example 536]	< 30 nM
CN1CCC(OC(c2cccc(CCCCNC(=N)NC(=O)OC(C)(C)C)c2)c2nc3ccccc3[nH]2)CC1 (stereo not drawn) [Example 309, N-tert-butoxycarbonyl-N′-(4-{3-[(1H-benzimidazol-2-yl)(1-methylpiperidin-4-yloxy)methyl]phenyl}butyl)guanidine]	< 300 nM
CCCCCCc1cccc(C(NC2CCN(C)CC2)c2nc3ccccc3[nH]2)c1 (stereo not drawn) [Example 76, [(1H-benzimidazol-2-yl)(3-hexylphenyl)methyl](1-methylpiperidin-4-yl)amine]	< 300 nM
CN1CCC(OC(c2cccc(OCCCl)c2)c2nc3ccccc3s2)CC1 (stereo not drawn) [Example 354, 2-[[3-(2-Chloroethoxy)phenyl](1-methylpiperidin-4-yloxy)methyl]benzothiazole]	< 30 nM

The next lines start with the values.

Ki or IC50 activity class	SMILES
< 300 nM	CN1CCC(OC(c2cccc(SCCCc3cnc[nH]3)c2)c2nc3ccccc3[nH]2)CC1 (stereo not drawn) [Example 398, 2-[{3-[3-(3H-imidazol-4-yl)propylsulfanyl]phenyl}(1-methylpiperidin-4-yloxy)methyl]-1H-benzimidazole]
< 30 nM	CN1CCC(OC(c2cccc(SCCCCCN)c2)c2nc3ccccc3[nH]2)CC1 (stereo not drawn) [Example 381, 5-{3-[(1H-benzimidazol-2-yl)(1-methylpiperidin-4-yloxy)methyl]phenylsulfanyl}pentylamine]
< 30 nM	CN1CCC(OC(c2nc3ccccc3[nH]2)c2cc(C#CCCCCN=C(c3ccccc3)c3ccccc3O)ccc2F)CC1 (stereo not drawn) [Example 562, 2-[(6-{3-[(1H-benzimidazol-2-yl)(1-methylpiperidin-4-yloxy)methyl]-4-fluorophenyl]hex-5-ynylimino)phenylmethyl}phenol]
< 300 nM	Cc1ccc(C(OC2CCN(C)CC2)c2nc3ccccc3[nH]2)c(Cl)c1 (stereo not drawn) [Example 213, 2-[(2-chloro-4-methylphenyl)(1-methylpiperidin-4-yloxy)methyl]-1H-benzimidazole]
< 30 nM	CCSc1ccc(F)c(C(OC2CCN(C)CC2)c2nc3ccccc3[nH]2)c1 (stereo not drawn) [Example 514]
< 1000 nM	CN1CCC(OC(c2cccc(C=CCN)c2)c2nc3ccccc3[nH]2)CC1 (stereo not drawn) [Example 488]
< 30 nM	CN1CCC(OC(c2cccc(CCCNC(=N)N)c2)c2nc3ccccc3[nH]2)CC1 (stereo not drawn) [Example 320, N-(3-{3-[(1H-benzimidazol-2-yl)(1-methylpiperidin-4-yloxy)methyl]phenyl}propyl)guanidine]
< 300 nM	CN1CCC(OC(c2nc3ccccc3[nH]2)c2ccc(F)cc2F)CC1 (stereo not drawn) [Example 221, 2-[(2,4-difluorophenyl)(1-methylpiperidin-4-yloxy)methyl]-1H-benzimidazole]
< 300 nM	CN1CCC(OC(c2cccc(OCCCF)c2)c2nc3ccccc3[nH]2)CC1 (stereo not drawn) [Example 475]
